The values that follow are results of earlier work, collected in patent publication US20200000760A1, “METHOD FOR TREATING OVERACTIVE BLADDERS AND A DEVICE FOR STORAGE AND ADMINISTRATION OF TOPICAL OXYBUTYNIN COMPOSITIONS” (Allergan Sales, LLC, priority 2009, published 2020).

For series [1] the following is noted: transdermal administration compared to oral administration.
For series [2] the following is noted: transdermal administration compared to oral administration. The source holds these as a separate data set.

With `CCN(CC)CC#CCOC(=O)C(O)(c1ccccc1)C1CCCCC1` (centres unmarked) [oxybutynin], the adverse events entry in series [1] is listed as “less adverse events”. The “oxybutynin:desethyloxybutynin ratio in the plasma” value in series [2] was “reduced”.
